Read-outs that look alike come from different tables or passages of the source.
Key:
[1] = in vitro, free QS-21; cited from earlier work
[2] = in vivo; cited from earlier work

CC(C)CCC[C@@H](C)[C@H]1CC[C@H]2[C@@H]3CC=C4C[C@@H](O)CC[C@]4(C)[C@H]3CC[C@]12C [cholesterol, cholesterol [1-2-3H (N)]]
elimination (after 168 h): lack of complete elimination
distribution to the iliac LN compared to inguinal LN and popliteal LN (after QF injection): substantial
plateau of relative activity in intestines, lungs, and bone marrow (both, CD-1 IGS, mouse, in vivo): 5-20 % ID/g tissue
plateau of relative radioactivity in plasma and kidney (both, CD-1 IGS, mouse, in vivo): 5%-20%
start of plateau of relative activity in testes, ovaries and uterus (both, CD-1 IGS, mouse, in vivo): 24 h
time at which systemic levels reached a plateau (both, CD-1 IGS, mouse, in vivo): around 24 h
time from which cholesterol levels are significantly higher than saponin levels at the injection site (both, CD-1 IGS, mouse, in vivo): 3 to 6 h
time to removal from the injection site (both, CD-1 IGS, mouse, in vivo): ≤ 48 h
decline of counts at the injection site (compared to saponin counts): slower decline
early relative radioactivity in plasma and kidney (early timepoints, in contrast to saponins): lower relative radioactivity
activity in urine (mouse, in vivo): Barely detectable activity
injected radioactive dose per gram tissue at the injection site and in the iliac LN (mouse, in vivo): high percentage
plateauing activity in spleen, heart, and brain (mouse, in vivo): lower levels
relative activity in the liver (mouse, in vivo): low levels
relative activity in the liver versus saponins (mouse, in vivo): slightly higher relative activity
reproductive organ with the highest relative activity (mouse, in vivo): highest relative activity of cholesterol detected in the ovaries

QS-21
hemolytic activity [1]: shows hemolytic activity
pain at the injection site [2]: immediate pain at the injection site

saponins
effect of presence of SARS-COV-2 antigen on relative activity in urine and kidney (mouse, in vivo): increased relative activity
excretion pathway (mouse, in vivo): rapidly excreted via the kidneys into urine
injected radioactive dose per gram tissue at the injection site and in the iliac LN (mouse, in vivo): high percentage
level in bone marrow after the peak (mouse, in vivo): declined
level in the QF and the iliac LN (mouse, in vivo): low levels
relative activity in plasma, urine, and kidney after the peak (mouse, in vivo): rapid decline
relative activity in the liver (mouse, in vivo): low levels
systemic accumulation (mouse, in vivo): do not accumulate systemically
time of highest relative activity in testes, ovaries and uterus (mouse, in vivo): 1 h
time of peak in bone marrow (mouse, in vivo): 3 h and 6 h
time of peak relative activity in plasma, urine, and kidney (mouse, in vivo): 1 to 3 h
time to near complete clearance (urine as major excretion pathway) (mouse, in vivo): ≤ 7 days
time to removal from the injection site (mouse, in vivo): ≤ 48 h
